In ChEMBL document CHEMBL3244280, “Thiazolinone analogues of indolmycin with antiviral and antibacterial activity” (J Med Chem, 1978):
Converted amounts (≈) assume the structure as drawn. The source made the active and inactive calls. No cut-off for these calls is given here.

Tests used:
Staphylococcus aureus [1] = assay: Antibacterial activity against Staphylococcus aureus Oxford; assay type: functional
Staphylococcus aureus [2] = assay: Antibacterial activity against Staphylococcus aureus 1517; assay type: functional
Bacillus subtilis [3] = assay: Antibacterial activity against Bacillus subtilis; assay type: functional
Enterococcus faecalis [4] = assay: Antibacterial activity against Streptococcus faecalis I; assay type: functional
Streptococcus pyogenes [5] = assay: Antibacterial activity against Streptococcus pyogenes CN10; assay type: functional
Staphylococcus aureus [6] = assay: Antibacterial activity against Staphylococcus aureus Russel; assay type: functional
Influenza A virus [7] = assay: Antiviral activity against influenza A virus NWS/H0N1 infected in BHK cells by agar diffusion assay; assay type: functional
[8] = Cytotoxicity against human HeLa cells by neutral red assay; assay type: cell-based
[9] = Cytotoxicity against BHK cells; assay type: cell-based, Mesocricetus auratus; details: hamster
Coxsackievirus B1 [10] = assay: Antiviral activity against Coxsackievirus B1 infected in human HeLa cells at 1 mg/ml by agar diffusion assay; assay type: functional; details: Enterovirus B; read-out: IZ
Influenza A virus [11] = assay: Antiviral activity against influenza A virus NWS/H0N1 infected in BHK cells at 1 mg/ml by agar diffusion assay; assay type: functional; details: read-out: IZ
Coxsackievirus B1 [12] = assay: Antiviral activity against Coxsackievirus B1 infected in human HeLa cells by agar diffusion assay; assay type: functional
Human alphaherpesvirus 1 = assay: Antiviral activity against Herpes simplex virus 1 infected in chick embryo fibroblasts by plaque reduction assay; assay type: functional, organism-based
Coxsackievirus B1 [13] = assay: Antiviral activity against Coxsackievirus B1 infected in human HeLa cells up to 100 ug/ml by agar diffusion assay; assay type: functional, organism-based
Enterococcus faecalis [14] = assay: Antibacterial activity against Streptococcus faecalis I up to 200 ug/ml; assay type: functional, organism-based
Staphylococcus aureus [15] = assay: Antibacterial activity against Staphylococcus aureus Russel up to 200 ug/ml; assay type: functional, organism-based
Staphylococcus aureus [16] = assay: Antibacterial activity against Staphylococcus aureus Oxford up to 200 ug/ml; assay type: functional, organism-based
HeLa = assay: Cytotoxicity against human HeLa cells up to 100 ug/ml; assay type: cell-based
Streptococcus pyogenes [17] = assay: Antibacterial activity against Streptococcus pyogenes CN10 up to 200 ug/ml; assay type: functional, organism-based
Influenza A virus [18] = assay: Antiviral activity against influenza A virus NWS/H0N1 infected in BHK cells up to 100 ug/ml by agar diffusion assay; assay type: functional, organism-based
[19] = Cytotoxicity against BHK cells up to 100 ug/ml by carbol fuschin assay; assay type: cell-based, Mesocricetus auratus; details: hamster
Staphylococcus aureus [20] = assay: Antibacterial activity against Staphylococcus aureus 1517 up to 200 ug/ml; assay type: functional, organism-based
Bacillus subtilis [21] = assay: Antibacterial activity against Bacillus subtilis up to 200 ug/ml; assay type: functional, organism-based

Compound | MIC (Staphylococcus aureus [1]) | MIC (Staphylococcus aureus [2]) | MIC (Bacillus subtilis [3]) | MIC (Enterococcus faecalis [4]) | MIC (Streptococcus pyogenes [5]) | MIC (Staphylococcus aureus [6]) | PDD50 (Influenza A virus [7]) | MCC [9] | zone of inhibition at 1000 µg/mL (Coxsackievirus B1 [10]) | zone of inhibition at 1000 µg/mL (Influenza A virus [11]) | Activity (Human alphaherpesvirus 1) | Activity (Coxsackievirus B1 [13]) | Activity (Enterococcus faecalis [14]) | Activity (Staphylococcus aureus [15]) | Activity (Staphylococcus aureus [16]) | Activity (HeLa) | Activity (Streptococcus pyogenes [17]) | Activity (Influenza A virus [18]) | Activity [19] | Activity (Staphylococcus aureus [20]) | further results
CC1(C)S[C@@H]2[C@H](NC(=O)[C@H](N)c3ccccc3)C(=O)N2[C@H]1C(=O)O [AMPICILLIN] | 2 µg/mL (≈ 5.72 µM) | 20 µg/mL (≈ 57.2 µM) | 2 µg/mL (≈ 5.72 µM) | 2 µg/mL (≈ 5.72 µM) | 2 µg/mL (≈ 5.72 µM) | 2 µg/mL (≈ 5.72 µM) |  |  |  |  |  |  |  |  |  |  |  |  |  |  | 
OC(c1ccccc1)c1nc2ccccc2[nH]1 (centres undefined) |  |  |  |  |  |  | >100 µg/mL | > 100 µg/mL | 24 mm | 0 mm |  |  |  |  |  |  |  |  |  |  | MCC [8]: 100 µg/mL; PDD50 (Coxsackievirus B1 [12]): 20 µg/mL
CNC1=NC(=O)[C@H]([C@H](C)c2c[nH]c3ccccc23)O1 (racemic) [INDOMYCIN] | 2 µg/mL (≈ 7.77 µM) | 2 µg/mL (≈ 7.77 µM) | 20 µg/mL (≈ 77.7 µM) | 2 µg/mL (≈ 7.77 µM) | 200 µg/mL (≈ 777 µM) | 2 µg/mL (≈ 7.77 µM) | >100 µg/mL | > 100 µg/mL | 0 mm | 0 mm |  |  |  |  |  |  |  |  |  |  | 
NC1=NC(=O)C(Cc2c[nH]c3ccccc23)S1 (racemic) | 200 µg/mL (≈ 815 µM) | 200 µg/mL (≈ 815 µM) | > 200 µg/mL | 200 µg/mL (≈ 815 µM) | > 200 µg/mL | 200 µg/mL (≈ 815 µM) |  |  | 0 mm | 0 mm | inactive |  |  |  |  |  |  |  |  |  | 
C[C@H](c1c[nH]c2ccccc12)[C@@H]1SC(N(C)C)=NC1=O (racemic) | 20 µg/mL (≈ 69.6 µM) | 20 µg/mL (≈ 69.6 µM) | > 200 µg/mL | > 200 µg/mL | > 200 µg/mL | 20 µg/mL (≈ 69.6 µM) |  |  | 0 mm | 0 mm | inactive |  |  |  |  |  |  |  |  |  | 
CNC1=NC(=O)C(Cc2cn(C)c3ccccc23)S1 (racemic) |  |  |  |  |  |  |  |  |  |  | inactive | inactive | inactive | inactive | inactive | Non-toxic | inactive | inactive | Non-toxic | inactive | Activity (Bacillus subtilis [21]): inactive
CNC1=NC(=O)[C@@H]([C@@H](C)c2c[nH]c3ccccc23)S1 |  |  |  |  |  |  |  |  |  |  | inactive | inactive | inactive | inactive | inactive | Non-toxic | inactive | inactive | Non-toxic | inactive | Activity (Bacillus subtilis [21]): inactive
C/N=C1/SC(Cc2c[nH]c3ccccc23)C(=O)N1C (racemic) |  |  |  |  |  |  |  |  |  |  | inactive | inactive | inactive | inactive | inactive | Non-toxic | inactive | inactive | Non-toxic | inactive | Activity (Bacillus subtilis [21]): inactive
CCNC1=NC(=O)C(Cc2c[nH]c3ccccc23)S1 (racemic) |  |  |  |  |  |  |  |  |  |  | inactive | inactive | inactive | inactive | inactive | Non-toxic | inactive | inactive | Non-toxic | inactive | Activity (Bacillus subtilis [21]): inactive
C[C@H](c1c[nH]c2ccccc12)[C@@H]1SC(N)=NC1=O |  | 20 µg/mL (≈ 77.1 µM) | 200 µg/mL (≈ 771 µM) | 20 µg/mL (≈ 77.1 µM) | 200 µg/mL (≈ 771 µM) | 20 µg/mL (≈ 77.1 µM) | 50 µg/mL | 100 µg/mL | 0 mm | 0 mm | inactive |  |  |  |  |  |  |  |  |  | 
CNC1=NC(=O)[C@@H]([C@H](C)c2c[nH]c3ccccc23)O1 (racemic) | 200 µg/mL (≈ 777 µM) | 200 µg/mL (≈ 777 µM) | > 200 µg/mL | 200 µg/mL (≈ 777 µM) | > 200 µg/mL | 200 µg/mL (≈ 777 µM) | >100 µg/mL | > 100 µg/mL | 0 mm | 0 mm |  |  |  |  |  |  |  |  |  |  | 
